# Measurements from patent publication US20230364121A1 (priority 2020, published 2023).
# Like-named read-outs stand apart in the source and are kept apart here.
# Experiments:
# [1] = tested on: HCoV; assay: microbe, parasite or virus in culture; format: cell-based, human coronavirus
# [2] = Cytotoxicity in mock infected BHK cells (MTT); format: cell-based, hamster; details: hamster
# Procedure: (§1) To determine the cytotoxicity, cells were seeded at an initial density of 1×10^6 cells/mL in 96 well plates containing Minimum Essential Medium with Earles's salts (MEM-E), L-glutamine, 1 mM sodium pyruvate and 25 mg/L kanamycin, supplemented with 10% fetal bovine serum. Cell cultures were then incubated at 37° C. in a humidified 5% CO2 atmosphere in the absence or presence of serial dilutions of test compounds. Cell viability was determined by the MTT method.
# (§2) Uninfected cells in the presence of serially diluted compound were used to assess the cytotoxicity of compounds.
# [3] = tested on: mock infected MES-1 cells; assay: Cytotoxicity in mock infected MES-1 cells (MTT); format: cell-based; details: Table 3B, 3 days
# Procedure: as §1
# [4] = tested on: HCoV; assay: microbe, parasite or virus in culture; format: cell-based, human coronavirus; remark: listed apart in the source
# [5] = tested on: mock infected BHK cells; assay: Cytotoxicity in mock infected BHK cells (MTT); format: cell-based, hamster; details: Table 2B; MTT, 3 days
# Procedure: as §1, §2
# [6] = Cytotoxicity in mock infected MES-1 cells (MTT); format: cell-based; details: mock infected MES-1 cells, Table 3A
# Procedure: as §1
# [7] = target: nsp12 NiRAN active-site (Severe acute respiratory syndrome coronavirus, UniProt P0C6X7); assay: biochemical; format: biochemical, SARS-CoV
# [8] = tested on: HCoV-229E; assay: Virus-induced CPE assay, HCoV-229E in BHK-21 cells (MTT); format: cell-based; details: Human coronavirus 229E, BHK-21, 72 h, BHK-21; dye staining; 3-day incubation; read-out: EC50
# Procedure: In an initial screening, BHK-21 cells acutely infected with a seasonal human alpha coronavirus, HCoV-229E, were exposed to serial dilutions of Compound 1A.
# BHK-21 cells: Test compounds were dissolved in DMSO at 100 mM and then diluted in Minimum Essential Medium with Earle's salts (MEM-E) containing 1 mM sodium pyruvate and 25 μg/mL kanamycin, supplemented with 10% FBS (growth medium) to final concentrations of 100, 20, 4 and 0.8 μM (two […] replica plates each). After BHK-21 cells were grown to confluency in 96-well plates, growth medium was replaced with fresh maintenance medium (growth medium with 1% inactivated FBS in place of 10% FBS) containing serially diluted test compound and HCoV-229E at a multiplicity of infection (MOI) of 0.01. Uninfected cells in the presence of serially diluted compound were used to assess the cytotoxicity of compounds. After a 3-day incubation at 37° C. in a humidified 5% CO2 atmosphere, cell viability was determined by the MTT method (Pauwels, R et al. J. Virol. Methods 20(4):309-321 (1988)).
# [9] = tested on: Huh7 cells; details: human
# [10] = tested on: human coronavirus alpha-229E; assay: microbe, parasite or virus in culture; format: cell-based, HCoV-229E; details: for EC90: read-out: Virus Yield Reduction Assay EC90; for EC50: Huh-7, 120 h, read-out: Neutral Red Assay EC50
# [11] = target: T1, SARS-Cov-1 nsp12:7L8:8 polymerase complex (Severe acute respiratory syndrome coronavirus, UniProt P0C6X7); format: biochemical
# [12] = target: T1, SARS-Cov-1 nsp12:7L8:8 polymerase complex; assay: biochemical; format: biochemical
# [13] = tested on: SARS-CoV and SARS-CoV-2 RTCs; format: biochemical
# [14] = target: nsp12:7:8 RTC (Severe acute respiratory syndrome coronavirus, UniProt P0C6X7); format: biochemical, SARS-CoV
# [15] = Bronchoalveolar lavage and plasma PK / safety study in healthy participants; format: in vivo, human
# Procedure: Two cohorts of 8 healthy participants have been enrolled to receive AT-527 at 275 or 550 mg BID orally for 2.5 days. At 4 and 12 h following the last dose, each participant (4/timepoint/cohort) underwent a single bronchoalveolar lavage (BAL) via a standard bronchoscope. Intensive plasma PK sampling was also performed after the last dose. BAL and plasma samples were assayed for AT-273. AT-273 levels in lung epithelial lining fluid (ELF) were calculated by correcting for urea levels in the BAL and the corresponding plasma samples. Safety assessments included adverse events (AEs), vital signs, electrocardiograms (ECGs), and standard laboratory tests.
# [16] = unidentified human coronavirus, BHK-21, 72 h
# [17] = mock infected BHK cells, Table 2A, MTT, 3 days
# [18] = unidentified human coronavirus, 72 h
# [19] = unidentified human coronavirus, Huh-7, 72 h
# [20] = AT-527 550 mg BID orally 2.5 days, 4 and 12 h after last dose
smiles,measurement,setting,value
CC(C)(CO)C(=O)SCCOP(=O)(NCc1ccccc1)OC[C@H]1O[C@@H](n2cnc3c(=O)[nH]c(N)nc32)[C@](C)(O)[C@@H]1O (stereo partly shown) [drawing 236],EC50,[1]; [16],1.7 µM
same,CC50 at 3 days,[2]; [17],65 µM
CNc1nc(N)nc2c1ncn2[C@@H]1O[C@H](CO[P@](=O)(N[C@@H](C)C(=O)OC(C)C)Oc2ccccc2)[C@@H](O)[C@@]1(C)F [drawing 254],CC50,[3],> 100 µM
same,EC50,[4],2.2 µM
CC(C)(CO)C(=O)SCCOP(=O)(NCc1ccccc1)OC[C@H]1O[C@@H](n2cnc3c(=O)[nH]c(N)nc32)[C@](C)(O)[C@@H]1O (stereo partly shown) [drawing 243],EC50,[1],1.9 µM
same,CC50,[5],65 µM
CC(C)[C@H](N)C(=O)O[C@@H]1[C@@H](CO)O[C@@H](n2ccc(N)nc2=O)[C@]1(C)O [drawing 245],CC50,[5],> 100 µM
CC(C)OC(=O)[C@H](C)N[P@](=O)(OCC1O[C@@H](n2ccc(=O)[nH]c2=O)[C@](C)(F)[C@@H]1O)Oc1ccccc1 (stereo partly shown) [drawing 248],CC50 at 3 days,[6],> 100 µM
same,EC50,[4]; [18],> 100 µM
CNc1nc(N)nc2c1ncn2[C@@H]1O[C@H](CO[P@@](=O)(N[C@@H](C)C(=O)OC(C)C)Oc2ccccc2)[C@@H](O)[C@@]1(C)F [drawing 246],CC50 at 3 days,[6],> 100 µM
same,EC50,[4]; [18],1.6 µM
CCC(CC)COC(=O)[C@H](C)N[P@](=O)(OC[C@H]1O[C@@](C#N)(c2ccc3c(N)ncnn23)[C@H](O)[C@@H]1O)Oc1ccccc1 [drawing 244],EC50,[1],7 µM
same,CC50,[5],> 100 µM
CCC(CC)COC(=O)[C@H](C)N[P@](=O)(OC[C@H]1O[C@@](C#N)(c2ccc3c(N)ncnn23)[C@H](O)[C@@H]1O)Oc1ccccc1 [drawing 251],CC50 at 3 days,[6],> 100 µM
same,EC50,[4]; [18],6 µM
CC(C)[C@H](N)C(=O)O[C@@H]1[C@@H](CO)O[C@@H](n2ccc(N)nc2=O)[C@]1(C)O [drawing 238],EC50,[1]; [16],> 100 µM
same,CC50 at 3 days,[2]; [17],> 100 µM
CC(C)[C@H](N)C(=O)O[C@@H]1[C@@H](CO)O[C@@H](n2ccc(N)nc2=O)[C@]1(C)O [drawing 252],CC50 at 3 days,[6],> 100 µM
same,EC50,[4]; [18],> 100 µM
"CC(C)OC(=O)[C@H](C)N[P@](=O)(OC[C@H]1O[C@@H](n2ccc(=O)[nH]c2=O)[C@](C)(F)[C@@H]1O)Oc1ccccc1 [sofosbuvir, reference compound]",fold less efficient at blocking nsp8 labeling / UMPylation than AT-9010,[7],about 5 fold
same,CC50 at 3 days,"[2]; uninfected BHK-21 cells, BHK-21, Table 5",> 100 µM
same,EC50,[8],> 100 µM
CC(C)OC(=O)[C@H](C)N[P@](=O)(OCC1O[C@@H](n2ccc(=O)[nH]c2=O)[C@](C)(F)[C@@H]1O)Oc1ccccc1 (stereo partly shown) [drawing 234],EC50,[1]; [16],> 100 µM
same,CC50 at 3 days,[2]; [17],> 100 µM
"CCN(CCO)CCCC(C)Nc1ccnc2cc(Cl)ccc12 (stereo not shown) [hydroxychloroquine, reference compound]",CC50,[9],26 µM
same,EC90,[10],< 0.048 µM
same,EC90,[10]; [19],< 0.05 µM
same,EC50,[10]; unidentified human coronavirus,7.4 µM
CC(C)[C@H](N)C(=O)O[C@@H]1[C@@H](CO)O[C@@H](n2ccc(N)nc2=O)[C@]1(C)O [drawing 259],CC50,[3],> 100 µM
CNc1nc(N)nc2c1ncn2[C@@H]1O[C@H](CO[P@@](=O)(N[C@@H](C)C(=O)OC(C)C)Oc2ccccc2)[C@@H](O)[C@@]1(C)F [drawing 253],CC50,[3],> 100 µM
same,EC50,[4],2 µM
CNc1nc(N)nc2c1ncn2[C@@H]1O[C@H](CO[P@](=O)(N[C@@H](C)C(=O)OC(C)C)Oc2ccccc2)[C@@H](O)[C@@]1(C)F [drawing 240],EC50,[1],2.9 µM
same,CC50,[5],> 100 µM
CNc1nc(N)nc2c1ncn2[C@@H]1O[C@H](CO[P@](=O)(N[C@@H](C)C(=O)OC(C)C)Oc2ccccc2)[C@@H](O)[C@@]1(C)F [drawing 233],EC50,[1]; [16],2.5 µM
same,CC50 at 3 days,[2]; [17],> 100 µM
"C[C@@]1(F)[C@H](O)[C@@H](COP(=O)(O)OP(=O)(O)OP(=O)(O)O)O[C@H]1n1ccc(=O)[nH]c1=O [2′C-Me 2′F-UTP, reference compound]",incorporation efficacy compared to misincorporation at a U position,[11],around 40%
same,EC50,[12],20 to 40 µM
"CCN(CC)CCCC(C)Nc1ccnc2cc(Cl)ccc12 (stereo not shown) [chloroquine, reference compound]",CC50,[9],21 µM
same,EC90,[10]; [19],< 0.05 µM
same,EC50,[10]; unidentified human coronavirus,8.1 µM
"C[C@@]1(F)[C@H](O)[C@@H](COP(=O)(O)OP(=O)(O)OP(=O)(O)O)O[C@H]1n1ccc(=O)[nH]c1=O [STP, 5′-triphosphate 2′-fluoro-2′-C-methyl uridine]",competition with UTP,[13]; 5-fold higher concentrations than UTP,not competitive
same,competition with UTP,[13]; STP: UTP 20:1,not competitive
same,discrimination as substrate of the SARS-CoV RDRP,[11],> 250 fold
same,fold less efficient at blocking nsp8 labeling / UMPylation than AT-9010,[7],~5 fold
same,IC50,[7]; IC50 of nsp8 labeling against GTP (FIG. 13C),5 ± 0.8 µM
same,IC50,[7]; IC50 of nsp8 labeling against UTP (FIG. 13C),8.2 ± 1.4 µM
same,IC50,"[7]; IC50 of nsp8 labeling, competition with UTP (FIG. 13A)",4.6 ± 0.2 µM
same,inhibition of RNA synthesis from poly(C) template,[14],virtually inactive
CNc1nc(N)nc2c1ncn2[C@@H]1O[C@H](CO[P@](=O)(N[C@@H](C)C(=O)OC(C)C)Oc2ccccc2)[C@@H](O)[C@@]1(C)F [drawing 247],CC50 at 3 days,[6],> 100 µM
same,EC50,[4]; [18],2 µM
CC(C)OC(=O)[C@H](C)N[P@](=O)(OCC1O[C@@H](n2ccc(=O)[nH]c2=O)[C@](C)(F)[C@@H]1O)Oc1ccccc1 (stereo partly shown) [drawing 241],EC50,[1],> 100 µM
same,CC50,[5],> 100 µM
Cn1c[n+]([C@@H]2O[C@H](COP(=O)([O-])OP(=O)(O)OP(=O)(O)O)[C@@H](O)[C@H]2O)c2nc(N)[nH]c(=O)c21 [^m7GTP],inhibition of nsp8 labeling / transfer of UTP to nsp8,[7],poorly inhibit
CCC(CC)COC(=O)[C@H](C)N[P@](=O)(OC[C@H]1O[C@@](C#N)(c2ccc3c(N)ncnn23)[C@H](O)[C@@H]1O)Oc1ccccc1 [drawing 237],EC50,[1]; [16],7.2 µM
same,CC50 at 3 days,[2]; [17],> 100 µM
CC(C)(CO)C(=O)SCCOP(=O)(NCc1ccccc1)OC[C@H]1O[C@@H](n2cnc3c(=O)[nH]c(N)nc32)[C@](C)(O)[C@@H]1O (stereo partly shown) [drawing 257],CC50,[3],82 µM
same,EC50,[4],1.7 µM
C[C@@]1(F)[C@H](O)[C@@H](CO)O[C@H]1n1cnc2c(=O)[nH]c(N)nc21 [AT-273],Mean AT-273 level in lung ELF,[15]; [20],≥ 0.5 µM
same,Mean AT-273 level in plasma,[15]; [20],≥ 0.5 µM
same,correlation of ELF and plasma levels (r),[15]; P<0.001,0.86
CC(C)(CO)C(=O)SCCOP(=O)(NCc1ccccc1)OC[C@H]1O[C@@H](n2cnc3c(=O)[nH]c(N)nc32)[C@](C)(O)[C@@H]1O (stereo partly shown) [drawing 250],CC50 at 3 days,[6],82 µM
same,EC50,[4]; [18],1.9 µM
CNc1nc(N)nc2c1ncn2[C@@H]1O[C@H](CO[P@@](=O)(N[C@@H](C)C(=O)OC(C)C)Oc2ccccc2)[C@@H](O)[C@@]1(C)F [drawing 232],EC50,[1]; [16],1.6 µM
same,CC50 at 3 days,[2]; [17],> 100 µM
CNc1nc(N)nc2c1ncn2[C@@H]1O[C@H](CO[P@@](=O)(N[C@@H](C)C(=O)OC(C)C)Oc2ccccc2)[C@@H](O)[C@@]1(C)F [drawing 239],EC50,[1],2 µM
same,CC50,[5],> 100 µM
CC(C)OC(=O)[C@H](C)N[P@](=O)(OCC1O[C@@H](n2ccc(=O)[nH]c2=O)[C@](C)(F)[C@@H]1O)Oc1ccccc1 (stereo partly shown) [drawing 255],CC50,[3],> 100 µM
same,EC50,[4],> 100 µM
CCC(CC)COC(=O)[C@H](C)N[P@](=O)(OC[C@H]1O[C@@](C#N)(c2ccc3c(N)ncnn23)[C@H](O)[C@@H]1O)Oc1ccccc1 [drawing 258],CC50,[3],> 100 µM
same,EC50,[4],5.5 µM
